Data taken from publication PMC5292209 (Biochemistry, 2016).

Target: T1, Protein tyrosine phosphatase 1B (PTP1B) (Homo sapiens, UniProt P18031)
T1 sequence (P18031 1-301): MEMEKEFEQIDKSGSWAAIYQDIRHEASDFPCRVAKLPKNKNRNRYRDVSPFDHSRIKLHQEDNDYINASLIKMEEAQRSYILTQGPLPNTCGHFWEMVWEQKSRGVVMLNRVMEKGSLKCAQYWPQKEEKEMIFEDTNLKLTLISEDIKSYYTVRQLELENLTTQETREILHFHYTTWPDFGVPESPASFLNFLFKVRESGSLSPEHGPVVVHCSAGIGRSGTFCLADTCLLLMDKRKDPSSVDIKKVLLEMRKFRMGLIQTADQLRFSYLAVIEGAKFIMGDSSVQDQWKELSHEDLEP

Km: 2800 ± 100 µM
Structure (SMILES): O=[N+]([O-])c1ccc(OP(=O)(O)O)cc1 [pNPP, p-nitrophenyl phosphate]
